Test results from patent US7205436B2, “Process for manufacture of quaternary ammonium tosylate salts of cinnamidoalkylamines and / or benzamidoalkylamines” (Galaxy Surfactants Limited, priority 2003, dated 2007).

Assay: UV absorption: molar extinction coefficient in methanol
Assay type: physicochemical
Details: at λmax 310 nm in methanol

CCCCCCCCCCCC[N+](C)(C)CCCNC(=O)C=Cc1ccc(OC)cc1.Cc1ccc(S(=O)(=O)[O-])cc1 [Example I, p-methoxy cinnamidopropyldimethyllauryl ammonium tosylate]
molar extinction coefficient, ε: 25,000
